Reference: ChEMBL document CHEMBL1150901, “Enhancement of NO production in activated macrophages in vivo by an antimalarial crude drug, Dichroa febrifuga” (J Nat Prod, 1998)
The source made the active and inactive calls. The calls are words filed in the database; no cut-off is given here.

Key:
Macrophage [1] = experiment: […] of LPS-induced NO production in BCG-treated ICR mouse macrophages at 1 mg/kg/day, po administered for 3 days before BCG immunization measured after 24 hrs of LPS challenge by Griess reagent method; format: functional; set-up: scale not given: the % may be the effect or the level left
[2] = Activation of LPS-induced NO production in BCG-treated ICR mouse macrophages at 5 mg/kg/day, po administered for 3 days before BCG immunization measured after 24 hrs of LPS challenge by Griess reagent method; format: functional, organism-based; conditions: Macrophage
[3] = Cytotoxicity against LPS-stimulated ICR mouse macrophages assessed as cell viability at 1 mg/kg/day after 72 hrs of LPS challenge by MTT assay; format: organism-based, Macrophage; conditions: read-out: Activity
Macrophage [4] = experiment: Activation of NO production in BCG-treated ICR mouse macrophages at 1 mg/kg/day, po administered for 3 days before BCG immunization measured after 72 hrs of LPS challenge by Griess reagent method; format: functional, organism-based
Mus musculus [5] = experiment: Antiinflammatory activity against po dosed ICR mouse assessed as number of peritoneal exudate cells; format: functional
Macrophage [6] = experiment: Increase in LPS-induced NO production in ICR mouse at 1 mg/kg/day, po 0 to 2 days administered after BCG immunization measured after 24 hrs of LPS challenge by Griess reagent method; format: functional, organism-based
[7] = Cytotoxicity against ICR mouse macrophages assessed as cell viability at 1 mg/kg/day after 72 hrs by MTT assay; format: organism-based, Macrophage; conditions: read-out: Activity
Mus musculus [8] = experiment: Toxicity in ICR mouse assessed as occurrence of diarrhea at 5 mg/kg/day, po; format: organism-based; set-up: route oral; conditions: in vivo
Macrophage [9] = experiment: Increase in LPS-induced NO production in ICR mouse at 1 mg/kg/day, po 0 to 2 days administered before BCG immunization measured after 24 hrs of LPS challenge by Griess reagent method; format: functional, organism-based
[10] = Activation of LPS-induced NO production in BCG-treated ICR mouse macrophages at 50 to 1000 mg/kg/day, po administered for 3 days before BCG immunization measured after 24 hrs of LPS challenge by Griess reagent method; format: functional, organism-based; conditions: Macrophage
[11] = Activation of LPS-induced NO production in BCG-treated ICR mouse macrophages at 1 mg/kg/day, po administered for 3 days before BCG immunization measured after 72 hrs of LPS challenge by Griess reagent method; format: functional, organism-based; conditions: Macrophage

| Structure (SMILES) | Activity (Macrophage [1]) [%] | Activity [2] | viability at 72 h [3] [%] | Activity (Macrophage [4]) | Activity (Mus musculus [5]) | Activity (Macrophage [6]) | viability at 72 h [7] [%] | Activity (Mus musculus [8]) | Activity (Macrophage [9]) | Activity [10] | Activity [11] |
| --- | --- | --- | --- | --- | --- | --- | --- | --- | --- | --- | --- |
| C[C@@H]1CC[C@H]2[C@@H](C)C(=O)O[C@@H]3O[C@@]4(C)CC[C@@H]1[C@]32OO4 [ARTEMISININ] | 23 |  |  |  |  |  |  |  |  |  |  |
| O=C(C[C@@H]1NCCC[C@H]1O)Cn1cnc2ccccc2c1=O [FEBRIFUGINE] |  | inactive | 10 | inactive | 378000000 | Active | > 90 | Not Active | Active | Dose-dependent effect | Active |
